# Assay results taken from US10934529B2, “Three dimensional hydrogels for culturing organoids” (Ecole Polytechnique Fèdèrale de Lausanne, priority 2015, dated 2021).
# “Also recorded” adds a separate entry of the source.
# Legend:
# Format in all cases: cell-based, mouse
# [1] = tested on: intestinal stem cells (ISCs); assay: ISC colony formation efficiency / ISC expansion in hydrogels; settings: for ISC colony formation, ECM component in combination with RGD / ISC colony formation / self-renewal, ECM component alone: component in soft (300 Pa) or stiff (1300 Pa) PEG matrices; for ISC colony formation / self-renewal, ECM component alone: without RGD; for Expansion of Lgr5+ cells: supplement to standard intestinal organoid growth medium, PEG-RGD culture
# Protocol: Freshly isolated crypts or single cells from dissociated colonies were added to the Matrigel or hydrogels precursor solution and cast in 20-μL droplets at the bottom of wells in 24-well plate. […] For single cell culture, thiazovivin (2.5 μM; Stemgent) and Jagged-1 peptide ([…]; Anaspec) was included in the medium during the first two days. Broad spectrum protease inhibitor, GM6001, was added to the medium while embedding the cells in PEG hydrogels. Every two days the growth factors were replenished and the full medium was changed.
# (§1) To quantify the colony formation efficiency of single embedded ISCs, phase contrast z-stacks spanning the entire thickness of the cell-laden Matrigel or PEG gels were collected (Zeiss Axio Observer Z1) at 5 different locations within the gels. The Cell Counter plugin in ImageJ (NIH) was used to quantify the fraction of cells which had formed colonies at day 4 after seeding. To assess the viability of intestinal tissue fragments embedded in PEG, phase contrast images of the entire gel were collected. The fraction of viable tissues was estimated based upon the epithelial morphology: tissues that featured an epithelial monolayer surrounding a central lumen after 24 h of embedding were deemed viable.
# Lgr5-EGFP = Lgr5-EGFP reporter expression in colonies and organoids; settings: cultured in the presence of collagen-I
# Source text: Lgr5-EGFP was expressed in the expected pattern, localized to the crypt-like buds of the organoids (FIG. 3B). […] Stem cell differentiation into functional cell types was confirmed by immunofluorescence analysis. Staining for lysozyme verified the presence of Paneth cells in the expected locations, interspersed with Lgr5+ stem cells in the characteristic checkerboard pattern (FIG. 3F). The organoids therefore retained the normal characteristics of epithelial cell organoids during culture in the hydrogels.
# Intestinal crypts were extracted from 5-10 week old heterozygous Lgr5-EGFP-IRES-CreERT2 mice (Jackson Laboratory), following animal experimentation protocols prescribed by EPFL and FELASA.
# ISC colonies = assay: ISC colony differentiation and intestinal organoid formation; settings: for ISC colony differentiation and organoid formation in soft PEG-RGD gels supplied with an ECM component: colonies grown in 1 kPa PEG-RGD, transferred into soft F-PEG-RGD, differentiation conditions; for Organoid formation from ISCs grown in soft laminin-containing gels: after switching to organoid formation conditions
# Protocol: To induce stem cell differentiation and organoid formation, the medium was removed, the gels were incubated in PBS (1 hr, […]) to remove residual CHIR99021 and valproic acid, and fresh medium containing EGF, Noggin and Respondin was added. In general, growth factors were replenished every two days, with full medium change taking place every four days.
# Intestinal organoids embedded in Matrigel or PEG were fixed with 4% paraformaldehyde (PFA) in PBS (30 min, RT). The fixation process typically led to complete degradation of the Matrigel. […] Following resuspension in water, the organoids were spread on glass slides and allowed to attach by drying. Attached organoids were rehydrated by adding PBS. Following fixation, organoids embedded in PEG or spread on glass were permeabilized with 0.2% Triton X-100 in PBS (1 h, RT) and blocked (10% goat serum in PBS containing 0.01% Triton X-100) for at least 2 h. Samples were subsequently incubated with blocking buffer-dissolved phalloidin-Alexa 546 (Invitrogen) and primary antibodies against lysozyme (1:50; Thermo Scientific) or mucin-2 (1:25; Santa Cruz) (overnight, 4° C.). After washing with PBS for 3 h (during which PBS was replaced every hour), samples were incubated with secondary antibody (Alexa 647) organoids were imaged in epifluorescence (Zeiss Axio Observer Z1) or confocal (Zeiss LSM 710) mode.
# intestinal organoids = assay: Viability, growth and morphogenesis of intestinal organoids / tissue fragments in hydrogels
# Source text: To identify a short sequence that supports intestinal cell survival, a library of soft (G′=200 Pa) hydrogels was created, in which specific binding sequences from the laminin al subunit (Table 1) were tethered to the PEG backbone.
# as §1
# [2] = tested on: freshly-isolated intestinal crypts; assay: Survival and morphogenesis of freshly isolated intestinal crypts embedded in 3D matrices; settings: component presented alongside RGD in PEG-RGD hydrogel
# Source text: Matrigel is currently used to grow epithelial organoids. To address the question of whether Matrigel serves as merely a passive 3D scaffold, providing physical support, or actively influences organoid formation by presenting essential cues, freshly-isolated intestinal crypts were embedded into enzymatically crosslinked PEG hydrogels, which are soft and hydrated and thus mimic the basic physical properties of Matrigel without providing any biochemical signals.
# Intestinal crypt isolation: Mouse intestine crypts were isolated following procedures known in the art. Briefly, the proximal part of the intestine was harvested, opened longitudinally and washed with ice-cold PBS. The luminal side of the intestine was scraped using a glass slide to remove luminal content and villous structures. After washing with ice-cold PBS again, the intestine was cut into 2-4 mm pieces with scissors. The pieces were transferred to a 50 ml Falcon tube and further washed with cold PBS (5-10 times) with gentle vortexing. […]
# To quantify the colony formation efficiency of single embedded ISCs, phase contrast z-stacks spanning the entire thickness of the cell-laden Matrigel or PEG gels were collected (Zeiss Axio Observer Z1) at 5 different locations within the gels. The Cell Counter plugin in ImageJ (NIH) was used to quantify the fraction of cells which had formed colonies at day 4 after seeding. […]
molecule,measurement,setting,value
Collagen-I: ECM component incorporated in PEG hydrogels,"ISC colony formation, ECM component in combination with RGD",[1],did not have a striking effect
same,ISC morphology,[1]; soft hydrogels with collagen-I and RGD,adopted a spindle-like morphology
same,Lgr5-EGFP in viable cells and colonies,Lgr5-EGFP,largely devoid of Lgr5-EGFP
Perlecan: ECM component incorporated in PEG hydrogels,"ISC colony formation, ECM component in combination with RGD",[1],starkly increased colony formation efficiency
same,"ISC colony formation / self-renewal, ECM component alone",[1],did not alter ISC self-renewal
same,ISC colony differentiation and organoid formation in soft PEG-RGD gels supplied with an ECM component,ISC colonies,failed to support ISC colony differentiation and organoid formation
"RKRLQVQLSIRT [AG73, synthetic peptide derived from the globular domain of the laminin al chain]",ISC colony differentiation and organoid formation in soft PEG-RGD gels supplied with an ECM component,ISC colonies,showed some early signs of differentiation and morphogenesis; also recorded: failed to support ISC colony differentiation and organoid formation
same,Organoid viability,intestinal organoids; soft (G'=200 Pa) PEG hydrogels with tethered laminin a1 subunit binding sequences,significantly enhanced organoid viability
same,Effect of amount of tethered AG73 on organoid viability and growth,intestinal organoids; varying amount of AG73 tethered to PEG gel backbone,dose-dependent effect; also recorded: concentration-dependent
same,Crypt viability,[2],synergistic increase in crypt viability
laminin-511: ECM component incorporated in PEG hydrogels,"ISC colony formation, ECM component in combination with RGD",[1],no effect
same,"ISC colony formation / self-renewal, ECM component alone",[1],no effect
"Cc1ccc2c(c1)C(=O)C1(O)CCN(c3ccccc3)C1=N2 (stereo not drawn) [blebbistatin, reference compound]",Effect of blocking myosin-mediated contractility on colony formation efficiency,[1]; PEG-RGD matrices of varying stiffness,abolished the stiffness-induced increase in colony formation efficiency
Fibronectin,"ISC colony formation, ECM component in combination with RGD",[1],no added effect
same,"ISC colony formation / self-renewal, ECM component alone",[1],appreciable colony formation only in stiff matrices
same,ISC colony differentiation and organoid formation in soft PEG-RGD gels supplied with an ECM component,ISC colonies,failed to support ISC colony differentiation and organoid formation
"CNC(=O)[C@H](Cc1c[nH]c2ccccc12)NC(=O)[C@@H](CC(=O)NO)CC(C)C [GM6001, reference compound]","Colony formation efficiency on blocking MMP activity, high matrix stiffness","[1]; printed: within non-degradable gels, high stiffness",reduced it to levels observed in non-degradable gels
same,"Colony formation efficiency on blocking MMP activity, low matrix stiffness","[1]; printed: within non-degradable gels, low stiffness",did not alter colony formation efficiency
"Laminin-111: extracellular matrix glycoprotein, heterotrimer of α, β and γ chain","ISC colony formation, ECM component in combination with RGD",[1],increased colony formation efficiency
same,"ISC colony formation / self-renewal, ECM component alone",[1],effectively supported colony formation in soft matrices; also recorded: supports ISC colony formation within soft matrices
same,Stiffness at which ISC colony formation efficiency peaks,[1]; laminin-containing gels,700 Pa
same,ISC colony formation,[1]; soft hydrogels containing both RGD and laminin-111,30-50%
same,Efficiency in inducing ISC colony formation compared with RGD,"[1]; soft, 300 Pa hydrogel",significantly more efficient
same,Organoid formation from ISCs grown in soft laminin-containing gels,ISC colonies; listed as laminin,give rise to organoids
same,Organoid formation from ISCs grown in soft laminin-containing gels,ISC colonies; listed as laminin-111,a small portion of the ISC colonies gave rise to intestinal organoids
same,ISC colony differentiation and organoid formation in soft PEG-RGD gels supplied with an ECM component,ISC colonies,pronounced morphogenesis and organoid formation; also recorded: required for organoid formation
Hyaluronic acid [reference compound],"ISC colony formation, ECM component in combination with RGD",[1],did not appear to influence
same,ISC colony differentiation and organoid formation in soft PEG-RGD gels supplied with an ECM component,ISC colonies,failed to support ISC colony differentiation and organoid formation
same,Crypt viability,[2],synergistic increase in crypt viability
"Cc1c[nH]c(-c2cnc(NCCNc3ccc(C#N)cn3)nc2-c2ccc(Cl)cc2Cl)n1 [CHIR99021, reference compound]",Expansion of Lgr5+ cells,[1],increased
"CCCC(CCC)C(=O)O [valproic acid, reference compound]",Expansion of Lgr5+ cells,[1],increased
"Arginine-Glycine-Aspartic Acid [RGD, reference compound]",Shear modulus at which ISC expansion / colony formation efficiency is optimal,[1]; RGD-containing gels of varying stiffness,1.3 kPa
same,RGD concentration at which ISC colony formation efficiency reached a plateau,"[1]; TG-PEG-RGD, varying RGD",approximately 500 μM
